Results taken from patent US11179341B2, “Self-righting articles” (priority 2017, dated 2021).

Tested on: Micrococcus lysodeikticus cells
Assay: Lysozyme enzyme activity assay
Format: biochemical
Settings: micropost tips 80% lysozyme and 20% PEO 200 k, versus uncompressed powder
Procedure: To measure the activity of lysozyme, the assay provided by Sigma Aldrich was used which measures the amount of lysed Micrococcus lysodeikticus cells. Briefly, a 200 unit/mL Lysozyme solution in 50 mM Potassium Phosphate Buffer was added to a 0.015% [w/v] Micrococcus lysodeikticus cell suspension in the same buffer. The decrease was recorded in A450 over 5 minutes. Nine micropost tips were fabricated from 80% lysozyme and 20% PEO 200 k and dissolved sets of three micropost tips together. Triplicate assays were performed on each dissolved solution for a total of nine tests and the results were compared to the results of a solution made with lysozyme that was not compressed into a micropost tip.

Substance: lysozyme
- lysozyme activity after the manufacturing process: maintain their activity
